Measured values taken from PubChem BioAssay (NCI).
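In this assay, cells in 96-well plates receive the compound at five concentrations for 48 hours. Endpoints are linearly interpolated between the surrounding concentrations. GI50: concentration for 50% inhibition of growth. TGI denotes the concentration required for complete inhibition of growth.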

test system: MDA-MB-468 breast; assay: NCI-60 cell line screen, 48 h

Structure (SMILES)	GI50 [µM]	TGI [µM]
CCCCCCCCCCCCC(NC(C)=O)(C(=O)OCC)C(=O)OCC	4.67	18.6
Clc1ccc(COC(Cn2ccnc2)c2ccc(Cl)cc2Cl)c(Cl)c1 (stereo not given)	1.84	5.13
CCCc1n(Cc2ccc3ccccc3n2)cc[n+]1Cc1ccc2ccccc2c1	0.273	1.49
CCCCCC(=C/c1ccccc1)/C=N/N=C(N)N	1.56	3
COc1c2occc2cc2ccc(=O)oc12	> 100	> 100
C[C@@H]1OC(=O)NN=C1c1ccc(-c2ccc(F)cc2)c(C(F)(F)F)c1	1.74	6.61
Cc1ccccc1C[P+](c1ccccc1)(c1ccccc1)c1ccccc1	0.265	1.16
C=C(C)[C@@H]1CC[C@]2(CN)CC[C@]3(C)[C@H](CC[C@@H]4[C@@]5(C)CCC(N)[C@@](C)(CO)[C@@H]5CC[C@]43C)[C@@H]12 (stereo not given in full)	1.77	3.42
N#Cc1ccc(NC(=O)Nc2nc3ccc(OC(F)(F)F)cc3s2)cc1	0.46	4.84
COc1ccc(-c2cc(-c3ccc(Cl)cc3)nc(SCCCCCCC(=O)NO)n2)cc1	1.64	7.19
C#C[C@]1(O)CC[C@H]2[C@@H]3CC=C4c5sc(Nc6ccc(C)cn6)nc5CC[C@]4(C)[C@H]3CC[C@@]21C	1.07	3.13
CN1CCN(Cc2ccc(NC(=O)c3cccc(C#Cc4c(N)ncc5ccc(F)cc45)c3)cc2C(F)(F)F)CC1	0.888	1.83
CC(=Nc1ccccc1)C1=C(O)C(Cc2ccc(F)cc2)NC1=O (stereo not given)	0.382	5.22
Cc1ccc2c(n1)C(=O)C(Cl)=C(Nc1ccc(C#N)cc1)C2=O	1.78	3.81
C[C@@]1(O)CCC[C@H]1n1c(=O)c(C(F)F)cc2cnc(NC3CCN(S(C)(=O)=O)CC3)nc21	1.61	4.76
O=C1CCC(N2C(=O)c3cccc(NCCOCCOCCNC(=O)c4cc5c(o4)C(=O)c4ccccc4C5=O)c3C2=O)C(=O)N1 (stereo not given)	1.46	3.88
COc1ccc(C(=O)c2cc(C)c(OC)c(C)c2)c(OC)c1N(C(=O)CCl)C(=O)CCl	0.0296	1.37
C=C1C(=O)O[C@H]2[C@H]1CC/C(Cn1cc(-c3ccsc3)nn1)=C\CC[C@@]1(C)O[C@@H]21	1.28	3.56

Structure (SMILES)	GI50 [µM]	TGI [µM]
O=C(Nc1ccc(N2CCNCC2)cn1)c1[nH]ncc1Nc1ncnc2sccc12	1.69	3.42
COC(=O)[C@H](Cc1cn(C)cn1)NC(=O)[C@@H](NC(=O)Nc1cc(C(F)(F)F)cc(C(F)(F)F)c1)C(C)(C)C	> 10	> 10
O=C(Nc1ccc(-n2ccc3c(NC(=O)c4ccccc4)nccc32)cc1)c1ccc(N2CCOCC2)c(C(F)(F)F)c1	1.74	19.2
CC(C)=CCc1c(O)c(C(=O)CC(C)C)c(O)c2c(-c3ccccc3)cc(=O)oc12	7.74	36.2
CCCCCCCCCC[N+](C)(C)C	0.43	2.79
O=S(=O)(NCCNc1cc(-c2cn(-c3ccccc3)nc2-c2cccc(O)c2)ccn1)c1ccc(Br)cc1	2.7	7.79
COC(=O)CCCNC(=O)C(=O)c1c(O)c(O)c(C(C)C)c2cc(C)c(-c3c(C)cc4c(C(C)C)c(O)c(O)c(C(=O)C(=O)NCCCC(=O)OC)c4c3O)c(O)c12	0.364	2.97
CN1CCN(c2ccc(-c3cccc(CN4CCOCC4)c3)cc2NC(=O)c2c[nH]c(=O)cc2C(F)(F)F)CC1	20.2	92.5
CC[C@]12C=CCN3CC[C@@]4(c5cc(NC(=O)COc6cc(O)c7c(=O)cc(-c8ccccc8)oc7c6)c(OC)cc5N(C)[C@H]4[C@@](O)(C(=O)OC)[C@@H]1OC(C)=O)[C@@H]32	1.52	3
CCN(CC)CCOc1ccc(Cc2ccccc2)cc1	16.2	41.2
Cc1nc2ccccc2c(/C=C/c2ccccc2)c1C(=O)/C=C/c1ccccc1	1.79	3.5
NC(Cc1c[nH]c2cc(F)ccc12)C(=O)O (stereo not given)	1010	> 2500
COCC(=O)NC/C=C/c1ccc2ncnc(Nc3ccc(Oc4ccc(C)nc4)c(C)c3)c2c1	1.96	10.3
C#CCOc1ccc(-c2csc(NC(=O)C=C)n2)cc1NS(=O)(=O)c1cccc2c(N(C)C)cccc12	0.823	1.71
Cc1cc(C)c(O)c(CNCCCNCc2cc(C)cc(C)c2O)c1	1.69	3.24
CCCC(=O)Nc1c(I)cc(I)c(CC(CC)C(=O)O)c1I (stereo not given)	> 100	> 100
COC1C(O)CC(OC2CC(OC3CC(O[C@@H]4C(=O)c5c(cc6cc(OC7CC(OC8CC(O)C(O)C(C)O8)C(O)C(C)O7)c(C)c(O)c6c5O)CC4[C@H](OC)[C@@H](O)C(C)=O)OC(C)C3O)OC(C)C2O)OC1C (stereo not given in full)	0.0256	2.65
